3 compounds from patent US20100055712A1, “Oligopeptides for treatment of osteoporosis and other bone diseases and methods therefor” (Washington University, priority 2008, published 2010) can be followed below.

Each structure is given as a SMILES string. *1 amine or outer side, *2 acyl side, *3 side chain or, on linkers, in order; H or OH if unused. Where a SMILES comes first, the peptide text is derived from it. [ ]: non-standard residue; d: D form. The star is where a group is joined. X1 = CC(N[*:1])C(=O)C(F)(F)C(=O)[*:2]; Boc = CC(C)(C)OC(=O)*

This assay deals with LRP1 expression in WT MEF cells. The assay is described as follows: LRP1 expression in WT MEF cells after treatment with γ-secretase inhibitors (western blot). The format is cell-based, mouse. The following applies: FIGS. 5I and 5J. The text has this: The requirement of γ-secretase activity in LRP1 regulation was further verified by two alternative approaches.
Background: In western blotting, separated proteins are transferred to a membrane and probed.
With `CC(C)C[C@H](NC(=O)[C@H](Cc1ccccc1)C[C@@H](O)[C@H](Cc1ccccc1)NC(=O)OC(C)(C)C)C(=O)N[C@@H](Cc1ccccc1)C(N)=O` [L685,458], the LRP1 expression entry is given as “enhanced LRP1 expression”. Turning to `C[C@H](NC(=O)Cc1cc(F)cc(F)c1)C(=O)N[C@H](C(=O)OC(C)(C)C)c1ccccc1` [DAPT], the LRP1 expression entry is recorded as “enhanced LRP1 expression”. For the compound `CCC(C)C(NC(=O)C(NC(=O)OC(C)(C)C)C(C)C)C(=O)NC(C)C(=O)C(F)(F)C(=O)NC(C(=O)NC(C(=O)OC)C(C)CC)C(C)C` (stereo not drawn) [DFK, DFK167] (Boc-VI[X1]VI-OMe; configuration not given here), the LRP1 expression entry is “enhanced LRP1 expression”.
